Data from patent US5879659A, “Ternary radiopharmaceutical complexes” (DuPont Pharmaceuticals Company, priority 1997, dated 1999).

Tested on: thrombi
Experiment: Canine Arteriovenous Shunt model
Type: in vivo, dog
Conditions: first 1 hour shunt period, 150 μCi/kg, i.v.
Experimental: Canine Arteriovenous Shunt Model: Adult mongrel dogs of either sex (9-13 kg) were anesthetized with pentobarbital sodium (35 mg/kg,i.v.) and ventilated with room air via an endotracheal tube (12 strokes/min, 25 ml/kg). For arterial pressure determination, the left carotid artery was cannulated with a saline-filled polyethylene catheter (PE-240) and connected to a Statham pressure transducer (P23ID; Oxnard, Calif.). Mean arterial blood pressure was determined via damping the pulsatile pressure signal. Heart rate was monitored using a cardiotachometer (Biotach, Grass Quincy, Mass.) triggered from a lead II electrocardiogram generated by limb leads. A jugular vein was cannulated (PE-240) for drug administration. The both femoral arteries and femoral veins were cannulated with silicon treated (Sigmacote, Sigma Chemical Co. St Louis, Mo.), saline filled polyethylene tubing (PE-200) and connected with a 5 cm section of silicon treated tubing (PE-240) to form an extracorporeal arterio-venous shunts (A-V). Shunt patency was monitored using a doppler flow system (model VF-1, Crystal Biotech Inc, Hopkinton, Mass.) and flow probe (2-2.3 mm, Titronics Med. Inst., Iowa City, Iowa) placed proximal to the locus of the shunt. All parameters were monitored continuously on a polygraph recorder (model 7D Grass) at a paper speed of 10 mm/min or 25 mm/sec.
On completion of a 15 min post surgical stabilization period, an occlusive thrombus was formed by the introduction of a thrombogenic surface (4-0 braided silk thread, 5 cm in length, Ethicon Inc., Somerville, N.J.) into the shunt one shunt with the other serving as a control. Two consecutive 1 hr shunt periods were employed with the test agent administered as an infusion over 5 min beginning 5 min before insertion of the thrombogenic surface. At the end of each 1 hr shunt period the silk was carefully removed and weighed and the % incorporation determined via well counting. Thrombus weight was calculated by subtracting the weight of the silk prior to placement from the total weight of the silk on removal from the shunt. […]

## ^99m Tc(tricine) (tris(1-pyrazolyl)borohydride)-Cyclo(D-Val-NMeArg-Gly-Asp-Mamb(hydrazino-nicotinyl-5-Aca)) [Example 1]
Mixed arterial and venous conditions
  uptake in thrombi compared with positive control (In-111-platelets) and negative controls (Tc-99m-albumin, I-125-fibrinogen): taken up in thrombi under both mixed arterial and venous conditions equivalently to the positive control and to a significantly greater extent than the negative controls
Mixed arterial conditions
  thrombus-to-blood ratio (target-to-background ratio): 114
Venous conditions
  thrombus-to-blood ratio (target-to-background ratio): 3.1
